Results taken from patent US7842681B2, “Treatment of myeoproliferative diseases” (Abbott Laboratories, priority 2006, dated 2010).

Experiments:
circulating platelets [1] = assay: Circulating platelet count in dogs after a single oral dose; type: in vivo; details: male beagle dogs, one 5 mg/kg oral dose (FIG. 1, FIG. 2)
Experimental: (§1) The effect of Bcl-2 protein inhibitors on circulating platelets can be determined by administration of test compounds, preferably orally or intravenously, to an animal and analyzing a blood sample and determining the number of platelets by techniques well-known in the art. Preferably, blood samples are obtained from about 2 hours to about 48 hours after compound administration.
Male beagle dogs (n=3/group; 8-12 kg) were treated with a single dose of 5 mg/kg N-(4-(4-((2-(4-chlorophenyl)-4,4-dimethylcyclohex-1-en-1-yl)methyl)piperazin-1-yl)benzoyl)-4-(((1R)-3-(morpholin-4-yl)-1-((phenylsulfanyl)methyl)propyl)amino)-3-((trifluoromethyl)sulfonyl)benzenesulfonamide in 10:30:60 ethanol/phosal 50 PG/PEG 400 (by weight) by oral gavage. Blood samples were collected at baseline and at the indicated time points from the jugular vein, treated with EDTA and the whole blood analyzed for platelet counts on a Cell-Dyn 3700 (Abbott Laboratories).
Male beagle dogs (n=3/group; 8-12 kg) were treated with a single dose of 5 mg/kg 3-((chloro(difluoro)methyl)sulfonyl)-N-(4-(4-((2-(4-chlorophenyl)-4,4-dimethylcyclohex-1-en-1-yl)methyl)piperazin-1-yl)benzoyl)-4-(((1R)-3-(morpholin-4-yl)-1-((phenylsulfanyl)methyl)propyl)amino)benzenesulfonamide in 10:90 DMSO/PEG 400 (by volume) by oral gavage. […]

circulating platelets [2] = assay: Circulating platelet count in dogs on multiple oral daily dosing; type: in vivo; details: male beagle dogs, once daily oral gavage, 2 mg/kg days 2-7, 6 mg/kg days 8-15 (FIG. 5)
Experimental: as §1
Male beagle dogs (n=3/group; 8-12 kg) were treated once daily with N-(4-(4-((2-(4-chlorophenyl)-5,5-dimethyl-1-cyclohex-1-en-1-yl)methyl)piperazin-1-yl)benzoyl)-4-(((1R)-3-(morpholin-4-yl)-1-((phenylsulfanyl)methyl)propyl)amino)-3-((trifluoromethyl)sulfonyl)benzenesulfonamide in 10:90 DMSO/PEG 400 (by volume) by oral gavage at a dose of 2 mg/kg on days 2-7 and at a dose of 6 mg/kg on days 8-15 of the study. Blood samples were collected at baseline and 6 hours post dosing on days 2-5, 8-12 and day 15 from the jugular vein, treated with EDTA and the whole blood analyzed for platelet counts on a Cell-Dyn 3700 (Abbott Laboratories). Percent starting platelet counts (PC) were calculated using the following equation. [1−(PCt=0−PCt=6)/PCt=0]×100%.

dog platelets = assay: Viability of dog platelets; type: cell-based
human platelets = assay: Viability of human platelets; type: cell-based
platelets = assay: Activation of apoptotic processes in platelets; type: cell-based, dog and human
isolated platelets = assay: Aggregation of isolated platelets; type: cell-based
Bcl-2 = assay: Binding to Bcl-2 protein
Experimental: Binding affinity of compounds to Bcl-2 protein is indicia of their inhibition of the activity of this protein. To determine the binding affinity of compounds to Bcl-2, representative examples were diluted in DMSO to concentrations between […] and added to each well of a 96-well microtiter plate. A mixture comprising 125 µL per well of assay buffer (20 mM phosphate buffer (pH 7.4), 1 mM EDTA, 50 mM NaCl, 0.05% PF-68), 10 nM of Bcl-2 protein (prepared according to the procedure described in PNAS 2001, 98, 3012-3017), 1 nM fluorescein-labeled BAX peptide (prepared in-house) and the DMSO solution of the representative example was shaken for 2 minutes and placed in a LJL Analyst (LJL Bio Systems, CA. Polarization was measured at room temperature using a continuous Fluorescein lamp (excitation 485 nm, emission 530 nm). Percentage of inhibition was determined by (1-((mP value of well-negative control)/range))×100%.

Bcl-XL = target: T1, Bcl-XL (Homo sapiens, UniProt Q07817); assay: Binding to Bcl-XL protein
T1 construct: made in house
Experimental: Binding affinity of compounds to Bcl-XL protein is indicia of their inhibition of the activity of this protein. To determine the binding affinity of compounds to Bcl-XL protein, representative examples were diluted in DMSO to concentrations between 100 μM and 1 μM and added to each well of a 96-well microtiter plate. A mixture comprising 125 μL per well of assay buffer (20 mM phosphate buffer (pH 7.4), 1 mM EDTA, 50 mM NaCl, 0.05% PF-68), 6 nM of Bcl-XL protein (prepared as described in Science 1997, 275, 983-986), 1 nM fluorescein-labeled BAD peptide (prepared in-house) and the DMSO solution of the compound was shaken for 2 minutes and placed in a LJL Analyst (LJL Bio Systems, CA). A negative control (DMSO, 15 nM BAD peptide, assay buffer) and a positive control (DMSO, 1 nM BAD peptide, 6 nM Bcl-XL, assay buffer) were used to determine the range of the assay. Polarization was measured at room temperature using a continuous Fluorescein lamp (excitation 485 nm, emission 530 nm). Percentage of inhibition was determined by (1-((mP value of well-negative control)/range))×100%.

Bcl-w = target: T2, Bcl-w (Homo sapiens, UniProt Q92843); assay: Binding to Bcl-w
T2 sequence (Q92843 1-193): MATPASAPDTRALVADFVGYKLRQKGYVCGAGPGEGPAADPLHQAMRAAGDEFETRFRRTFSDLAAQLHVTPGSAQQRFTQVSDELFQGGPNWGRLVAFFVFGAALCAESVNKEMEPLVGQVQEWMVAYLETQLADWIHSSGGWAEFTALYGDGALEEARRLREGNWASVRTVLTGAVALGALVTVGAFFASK

T1 sequence (Q07817 whole entry): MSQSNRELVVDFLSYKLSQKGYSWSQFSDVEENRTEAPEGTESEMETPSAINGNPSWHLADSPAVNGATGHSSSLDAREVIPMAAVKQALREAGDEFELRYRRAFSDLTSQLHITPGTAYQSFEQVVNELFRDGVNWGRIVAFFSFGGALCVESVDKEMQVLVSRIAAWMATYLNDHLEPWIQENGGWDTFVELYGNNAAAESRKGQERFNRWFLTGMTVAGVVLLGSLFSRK

| SMILES | circulating platelet count (circulating platelets [1]) | circulating platelet count, multiple oral dosing (circulating platelets [2]) | viability of platelets (dog platelets) | viability of platelets (human platelets) | PS (phosphotidyl serine) externalization (platelets) | caspase 3 activation (platelets) | cytochrome c release (platelets) | aggregation of isolated platelets (isolated platelets) | binding to Bcl-2 (Bcl-2) | binding to Bcl-XL (Bcl-XL) | binding to Bcl-w (Bcl-w) |
| --- | --- | --- | --- | --- | --- | --- | --- | --- | --- | --- | --- |
| CC1(C)CCC(CN2CCN(c3ccc(C(=O)NS(=O)(=O)c4ccc(N[C@H](CCN5CCOCC5)CSc5ccccc5)c(S(=O)(=O)C(F)(F)F)c4)cc3)CC2)=C(c2ccc(Cl)cc2)C1 [EXAMPLE 6, N-(4-(4-((2-(4-chlorophenyl)-4,4-dimethylcyclohex-1-en-1-yl)methyl)piperazin-1-yl)benzoyl)-4-(((1R)-3-(morpholin-4-yl)-1-((phenylsulfanyl)methyl)propyl)amino)-3-((trifluoromethyl)sulfonyl)benzenesulfonamide] | rapid reduction in circulating platelet count |  |  |  |  |  |  |  |  |  |  |
| CC1(C)CCC(c2ccc(Cl)cc2)=C(CN2CCN(c3ccc(C(=O)NS(=O)(=O)c4ccc(N[C@H](CCN5CCOCC5)CSc5ccccc5)c(S(=O)(=O)C(F)(F)F)c4)cc3)CC2)C1 [EXAMPLE 2, N-(4-(4-((2-(4-chlorophenyl)-5,5-dimethyl-1-cyclohex-1-en-1-yl)methyl)piperazin-1-yl)benzoyl)-4-(((1R)-3-(morpholin-4-yl)-1-((phenylsulfanyl)methyl)propyl)amino)-3-((trifluoromethyl)sulfonyl)benzenesulfonamide] |  | proportionate effect | reduced | reduced | activated | activated | activated | did not induce | capable of binding | capable of binding | capable of binding |
| CN(C)CC[C@H](CSc1ccccc1)Nc1ccc(S(=O)(=O)NC(=O)c2ccc(N3CCN(Cc4ccccc4-c4ccc(Cl)cc4)CC3)cc2)cc1[N+](=O)[O-] [EXAMPLE 7, N-(4-(4-((4′-chloro(1,1′-biphenyl)-2-yl)methyl)piperazin-1-yl)benzoyl)-4-(((1R)-3-(dimethylamino)-1-((phenylsulfanyl)methyl)propyl)amino)-3-nitrobenzenesulfonamide] |  |  |  |  |  |  |  |  | capable of binding | capable of binding | capable of binding |
